{
  "source": "patent US12376586B2",
  "about": "“Microcapsules comprising cinmethyln in the core and a polyurea derived from diphenylmethane diisocyanate or an oligomer thereof” (BASF Agro B.V., priority 2017, dated 2025)",
  "origin": "cited, not measured here",
  "key": {"[1]": {"settings": "at 20° C."}, "[2]": {"settings": "at 20° C.", "remark": "listed apart in the source"}},
  "data": [
    {"smiles": "Cc1ccccc1CO[C@@H]1C[C@]2(C(C)C)CC[C@@]1(C)O2", "note": "(racemic) [Cinmethylin, (±)-2-exo-(2-methylbenzyloxy)-1-methyl-4-isopropyl-7-oxabicyclo[2.2.1]heptane]", "values": [
      {"measurement": "vapor pressure", "setting": "[1]", "result": "8.1·10^−3 Pa"},
      {"measurement": "solubility in water", "setting": "[2]", "result": "0,063 g·L^−1"}
    ]}
  ]
}
